The text below walks through data of patent US6153616A, “Triazoles as therapeutic agents for fungal infections” (Synphar Laboratories, Inc., priority 1998, dated 2000).

Structures are written as SMILES. ≈ marks a conversion by molar mass, not a printed value. Read-outs that look alike come from different tables or passages of the source. Bounds are passed on as bounds.

In one data set the test system is Aspergillus fumigatus. Description: In vitro antifungal activity (minimum inhibitory concentration), Aspergillus fumigatus. Conditions: 48 h at 37° C. It counts as cell-based. As for the experimental part:
(§1) The compounds of the present invention were evaluated in vitro for their antifungal activity and were assessed based on minimum inhibitory concentration of the test compound, i.e. the concentration of the test compound at which growth of particular organism fails to occur. […] The microorganisms used in this test include Candida albicans, C. tropicalis, C. kefyr, C. krusei, C. guilliermondii, C. glabrata, Cryptococcus neoformans, Aspergillus niger and A. fumigatus.

The test system of the next data set is C. guilliermondii. Description: In vitro antifungal activity (minimum inhibitory concentration), C. guilliermondii. As to conditions: Meyerozyma guilliermondii, 48 h at 37° C. The class given is cell-based. The procedure: as §1
Another data set deals with Saccheromyces cerevisiae. Description: In vitro antifungal activity (minimum inhibitory concentration), Saccheromyces cerevisiae. It counts as cell-based.
The subject of another data set is Cryptococcus neoformans. The data set can be described thus: In vitro antifungal activity (minimum inhibitory concentration), Cryptococcus neoformans. It counts as cell-based. As to conditions: 48 h at 37° C. As for the experimental part: as §1
Another data set has as its system A. niger. Description: In vitro antifungal activity (minimum inhibitory concentration), A. niger. It counts as cell-based. Conditions: Aspergillus niger, 48 h at 37° C. The procedure:
as §1

The subject of a further data set is Candida albicans. Description: In vitro antifungal activity (minimum inhibitory concentration), Candida albicans. It counts as cell-based. Conditions: 48 h at 37° C. The procedure: as §1
The test system of a further data set is A. fumigatus. Description: In vivo therapeutic efficacy, A. fumigatus systemic infection in mice. As to conditions: Aspergillus fumigatus, oral, i.v. and s.c. routes, survival vs control, read-out: Therapeutic efficacy (ED50) in mice systemic infections. The procedure:
(§2) Certain selected compounds were evaluated in-vivo for their antifungal efficacy. Series of doses of test compounds were administered by oral, i.v and s.c. routes to infected mice, i.e mice that are inoculated with a strain of Candida albicans or Aspergillus fumigatus. Efficacy of test compound was determined based on survival of treated mice compared to control. The in vivo efficacy was assessed based on ED50 of the test compound. The following table provides ED50 of certain compounds for systemic infections of C. albicans and A. fumigatus in mice models.

For a further data set, the system named is C. tropicalis. Description: In vitro antifungal activity (minimum inhibitory concentration), C. tropicalis. It counts as cell-based. As to conditions: Candida tropicalis, 48 h at 37° C. As for the experimental part: as §1
The next data set deals with C. glabrata. The data set can be described thus: In vitro antifungal activity (minimum inhibitory concentration), C. glabrata. The class given is cell-based. As to conditions: Nakaseomyces glabratus, 48 h at 37° C. As for the experimental part:
as §1

The subject of a further data set is C. albicans. Description: In vivo therapeutic efficacy, C. albicans systemic infection in mice. As to conditions: Candida albicans, oral, i.v. and s.c. routes, survival vs control, read-out: Therapeutic efficacy (ED50) in mice systemic infections. The procedure: as §2
Another data set concerns C. krusei. Description: In vitro antifungal activity (minimum inhibitory concentration), C. krusei. The class given is cell-based. Conditions: Pichia kudriavzevii, 48 h at 37° C. As for the experimental part:
as §1

Another data set has as its system C. kefyr. The data set can be described thus: In vitro antifungal activity (minimum inhibitory concentration), C. kefyr. The class given is cell-based. As to conditions: Kluyveromyces marxianus, 48 h at 37° C. As for the experimental part:
as §1

The subject of the next data set is filamentous fungi. Conditions: background; cited from earlier work.
The conditions of data set [1]: background; cited from earlier work.
For data set [2] the following is noted: background; cited from earlier work. This is another data set of the same source.
The mark [3] stands for this setting: Saccheromyces cerevisiae, 48 h at 37° C., read-out: MIC.

Regarding `CCC(CC)n1ncn(-c2ccc(N3CCN([C@H](C)[C@](O)(Cn4cncn4)c4ccc(F)cc4F)CC3)cc2)c1=O` [Example 36], the MIC (commonly the smallest concentration in the dilution series that meets the test's criterion for growth inhibition) in the data set with Aspergillus fumigatus turned out to be 0.39 µg/mL (≈ 0.688 µM); against C. guilliermondii, 0.048 µg/mL (≈ 0.0847 µM); in the data set with Saccheromyces cerevisiae (setting [3]), 0.19 µg/mL (≈ 0.335 µM); against Cryptococcus neoformans, 0.048 µg/mL (≈ 0.0847 µM); in the data set on A. niger, 0.78 µg/mL (≈ 1.38 µM); with Candida albicans, 0.09 µg/mL (≈ 0.159 µM). Moreover, the minimal inhibitory concentration (MIC) was determined as 0.09 µg/mL (≈ 0.159 µM) with C. tropicalis, 0.09 µg/mL (≈ 0.159 µM) in the data set with C. glabrata, 0.09 µg/mL (≈ 0.159 µM) with C. krusei and 0.048 µg/mL (≈ 0.0847 µM) in the data set on C. kefyr. The ED50 (commonly the dose that gives a 50% effect, or the effect in half of the subjects) in the data set on A. fumigatus was greater than 45 mg/kg; in the data set with C. albicans, 8.01 mg/kg.
As for `CCC(C)n1ncn(-c2ccc(N3CCN([C@H](C)[C@](O)(Cn4cncn4)c4ccc(F)cc4F)CC3)cc2)c1=O` (stereo partly drawn) [Example 40, (2R,3R)-3-[4-{4-[2-(2-Butyl)-2H-1,2,4-triazol-3-one-4-yl]phenyl}piperazin-1-yl]2-(2,4-difluorophenyl)-1-(1H-1,2,4-triazol-1-yl)butan-2-ol], the MIC with Aspergillus fumigatus worked out at 0.39 µg/mL (≈ 0.706 µM); with C. guilliermondii, 0.048 µg/mL (≈ 0.0869 µM); with Saccheromyces cerevisiae (setting [3]), 0.09 µg/mL (≈ 0.163 µM); against Cryptococcus neoformans, 0.48 µg/mL (≈ 0.869 µM); against A. niger, 0.78 µg/mL (≈ 1.41 µM); with Candida albicans, 0.09 µg/mL (≈ 0.163 µM). In addition, the minimal inhibitory concentration (MIC) against C. tropicalis amounted to 0.048 µg/mL (≈ 0.0869 µM); with C. glabrata, 0.39 µg/mL (≈ 0.706 µM); with C. krusei, 0.19 µg/mL (≈ 0.344 µM); against C. kefyr, 0.048 µg/mL (≈ 0.0869 µM). In addition, the figures for the ED50 in the data set with A. fumigatus and with C. albicans were 67 mg/kg and 4.68 mg/kg, respectively.
As to `CC(C)n1ncn(-c2ccc(N3CCN([C@H](C)[C@](O)(Cn4cncn4)c4ccc(F)cc4F)CC3)cc2)c1=O` [Example 41, (2R,3R)-2-(2,4-Difluorophenyl)-3-[4-{4-[2-(2-propyl)-2H-1,2,4-triazol-3-one-4-yl]phenyl}piperazin-1-yl]-1-(1H-1,2,4-triazol-1-yl)butan-2-ol], the minimal inhibitory concentration (MIC) against Aspergillus fumigatus worked out at 0.78 µg/mL (≈ 1.45 µM); against C. guilliermondii, 0.048 µg/mL (≈ 0.0891 µM); in the data set with Saccheromyces cerevisiae (setting [3]), 0.19 µg/mL (≈ 0.353 µM); with Cryptococcus neoformans it was 0.48 µg/mL (≈ 0.891 µM); against A. niger, 3.12 µg/mL (≈ 5.79 µM); with Candida albicans it was 0.09 µg/mL (≈ 0.167 µM). Moreover, the MIC in the data set on C. tropicalis is 0.09 µg/mL (≈ 0.167 µM); against C. glabrata it was 0.78 µg/mL (≈ 1.45 µM); with C. krusei, 1.56 µg/mL (≈ 2.9 µM); against C. kefyr, 0.48 µg/mL (≈ 0.891 µM). Also, the ED50 with A. fumigatus stood at 89.3 mg/kg; in the data set with C. albicans, 8.01 mg/kg.
Take `CC(O)Cn1ncn(-c2ccc(N3CCN([C@H](C)[C@](O)(Cn4cncn4)c4ccc(F)cc4F)CC3)cc2)c1=O` (stereo partly drawn) [Example 42, (2R,3R)-2-(2,4-Difluorophenyl)-3-[4-{4-[2-(2-hydroxypropyl)-2H-1,2,4-triazol-3-one-4-yl]phenyl}piperazin-1-yl]-1-(1H-1,2,4-triazol-1-yl)butan-2-ol]: the MIC was 0.39 µg/mL (≈ 0.703 µM) against Aspergillus fumigatus; 0.09 µg/mL (≈ 0.162 µM) in the data set on C. guilliermondii; 0.39 µg/mL (≈ 0.703 µM) in the data set with Saccheromyces cerevisiae (setting [3]); 0.19 µg/mL (≈ 0.343 µM) with Cryptococcus neoformans; 3.12 µg/mL (≈ 5.63 µM) in the data set on A. niger; 0.09 µg/mL (≈ 0.162 µM) with Candida albicans. Further, the MIC was determined as 0.09 µg/mL (≈ 0.162 µM) against C. tropicalis, 12.5 µg/mL (≈ 22.5 µM) in the data set on C. glabrata, 1.56 µg/mL (≈ 2.81 µM) with C. krusei and 0.048 µg/mL (≈ 0.0865 µM) against C. kefyr. For the same compound, the ED50 was 71.1 mg/kg in the data set with A. fumigatus and greater than 90 mg/kg with C. albicans.
With `C[C@@H](N1CCN(c2ccc(-n3cnn(Cc4ccc(C(F)(F)F)cc4)c3=O)cc2)CC1)[C@](O)(Cn1cncn1)c1ccc(F)cc1F` [Example 43], the MIC in the data set with Aspergillus fumigatus was determined as 0.19 µg/mL (≈ 0.29 µM); against C. guilliermondii, 0.09 µg/mL (≈ 0.137 µM); in the data set with Saccheromyces cerevisiae (setting [3]) it was 0.09 µg/mL (≈ 0.137 µM); against Cryptococcus neoformans, 0.048 µg/mL (≈ 0.0733 µM); against A. niger, 0.19 µg/mL (≈ 0.29 µM); against Candida albicans, 0.048 µg/mL (≈ 0.0733 µM). The MIC against C. tropicalis is 0.048 µg/mL (≈ 0.0733 µM); with C. glabrata, 0.78 µg/mL (≈ 1.19 µM); against C. krusei, 0.09 µg/mL (≈ 0.137 µM); against C. kefyr, 0.048 µg/mL (≈ 0.0733 µM). In addition, the ED50 with A. fumigatus stood at 42.3 mg/kg; in the data set with C. albicans, 1.57 mg/kg.
Take `C[C@@H](N1CCN(c2ccc(-n3cnn(CC(F)(F)C(F)F)c3=O)cc2)CC1)[C@](O)(Cn1cncn1)c1ccc(F)cc1F` [Example 44]: the MIC in the data set on Aspergillus fumigatus is 0.048 µg/mL (≈ 0.0786 µM); against C. guilliermondii, 0.048 µg/mL (≈ 0.0786 µM); in the data set with Saccheromyces cerevisiae (setting [3]), 0.048 µg/mL (≈ 0.0786 µM); in the data set on Cryptococcus neoformans, 0.048 µg/mL (≈ 0.0786 µM); in the data set with A. niger it was 0.19 µg/mL (≈ 0.311 µM); in the data set on Candida albicans, 0.048 µg/mL (≈ 0.0786 µM). The MIC was determined as 0.048 µg/mL (≈ 0.0786 µM) against C. tropicalis, 1.56 µg/mL (≈ 2.56 µM) with C. glabrata, 0.09 µg/mL (≈ 0.147 µM) with C. krusei and 0.048 µg/mL (≈ 0.0786 µM) in the data set with C. kefyr.
As to `C[C@@H](N1CCN(c2ccc(-n3cnn(Cc4ccc(F)cc4F)c3=O)cc2)CC1)[C@](O)(Cn1cncn1)c1ccc(F)cc1F` [Example 46], the MIC in the data set with Aspergillus fumigatus worked out at 0.048 µg/mL (≈ 0.0771 µM); with C. guilliermondii it was 0.048 µg/mL (≈ 0.0771 µM); in the data set on Saccheromyces cerevisiae (setting [3]), 0.09 µg/mL (≈ 0.145 µM); in the data set on Cryptococcus neoformans it was 0.048 µg/mL (≈ 0.0771 µM); against A. niger, 0.09 µg/mL (≈ 0.145 µM); against Candida albicans, 0.048 µg/mL (≈ 0.0771 µM). In addition, the minimum inhibitory concentration (MIC) is 0.048 µg/mL (≈ 0.0771 µM) against C. tropicalis, 0.39 µg/mL (≈ 0.626 µM) against C. glabrata, 0.19 µg/mL (≈ 0.305 µM) against C. krusei and 0.048 µg/mL (≈ 0.0771 µM) in the data set with C. kefyr. Moreover, the ED50 with A. fumigatus is greater than 45 mg/kg; in the data set on C. albicans it was 56 mg/kg.
As for `OC(Cn1cncn1)(Cn1cncn1)c1ccc(F)cc1F` [Fluconazole, reference compound], the MIC is greater than 100 µg/mL in the data set on Aspergillus fumigatus; 1.56 µg/mL (≈ 5.09 µM) in the data set with C. guilliermondii; 6.25 µg/mL (≈ 20.4 µM) against Saccheromyces cerevisiae (48 h); 1.56 µg/mL (≈ 5.09 µM) in the data set on Cryptococcus neoformans; greater than 100 µg/mL with A. niger; 0.78 µg/mL (≈ 2.55 µM) against Candida albicans. For the same compound, the MIC was determined as 0.39 µg/mL (≈ 1.27 µM) in the data set with C. tropicalis, 12.5 µg/mL (≈ 40.8 µM) against C. glabrata, 50 µg/mL (≈ 163 µM) against C. krusei and 0.39 µg/mL (≈ 1.27 µM) in the data set on C. kefyr. Besides, the “activity against filamentous fungi” value with filamentous fungi is on record as “not active against filamentous fungi”.
In the case of `CCC(C)n1ncn(-c2ccc(N3CCN(c4ccc(OCC5COC(Cn6cncn6)(c6ccc(Cl)cc6Cl)O5)cc4)CC3)cc2)c1=O` (stereo not shown) [Itraconazole, reference compound], the MIC in the data set with Aspergillus fumigatus was found to be 0.19 µg/mL (≈ 0.269 µM); with C. guilliermondii, 0.19 µg/mL (≈ 0.269 µM); in the data set on Saccheromyces cerevisiae (setting [3]), 0.39 µg/mL (≈ 0.553 µM); in the data set on Cryptococcus neoformans, 0.39 µg/mL (≈ 0.553 µM); against A. niger, 0.39 µg/mL (≈ 0.553 µM); against Candida albicans, 0.09 µg/mL (≈ 0.128 µM). For the same compound, the MIC against C. tropicalis worked out at 0.09 µg/mL (≈ 0.128 µM); against C. glabrata it was 0.19 µg/mL (≈ 0.269 µM); against C. krusei, 0.39 µg/mL (≈ 0.553 µM); in the data set on C. kefyr it was 0.09 µg/mL (≈ 0.128 µM). The “activity against filamentous fungi” value in the data set with filamentous fungi is recorded as “active against filamentous fungi”. For the same compound, the bioavailability entry in data set [1] is given as “less bioavailability”. Also, the protein binding result in data set [2] is “high protein binding”.
